Data taken from article PMC10485003, “Antibiotic hyper-resistance in a class I aminoacyl-tRNA synthetase with altered active site signature motif” (Nature Communications, 2023).
Where “and” joins values, the source holds several entries; their conditions need not be identical. Equal entries are not always repeated. Where two headings read alike, the source gives them in different places.

Legend:
wt-HMGH PmIleRS1 = conditions: amino acid activation step; ATP/PPi exchange assay; Ile varied; slow tight binding inhibitor; read-out: KI (MUP)Ile; cited from earlier work
ScIleRS2 = conditions: aminoacylation, with tRNA; cited from earlier work
W130Q PmIleRS2 = experiment: ATP-PPi exchange assay, mupirocin inhibition of amino acid activation; format: biochemical, Priestia (Bacillus) megaterium; conditions: for vo (initial enzyme velocity): Replica 1-3
Description: L-Ile and ATP concentrations ranged from 1/10 KM to 10 KM values. When measuring the KI towards one of the substrates, the other was held in saturation (concentrations at least 10 KM). The aliquots of the reaction mixture (1–2.5 μl) were quenched in 2 volumes of 500 mM NaOAc pH = 4.5, 0.1% SDS, and formed ^32P-ATP was separated from the remaining ^32P-PPi by thin-layer chromatography on Polygram CEL 300 PEI UV254 TLC plates (Macherey-Nagel, cat: 801063) using 750 mM KH2PO4 pH=3.5, 4 M urea buffer. Visualization and quantification of the signals was performed using a Typhoon Phosphoimager 5 (General Electric) and accompanying ImageQuant™ TL software (SV: 10.2). The kinetic constants were determined using a global fit option of the competitive inhibition model of GraphPad Prism 6 software (SV: 6.01). All experiments were performed in triplicates. The kcat was determined by dividing the maximal velocity, VM, with the used enzyme concentration.
Source data are provided as a Source Data file. Data are presented as the average value
± SD of three independent experiments. b) A 2Fo-Fc Fourier difference map of the W130Q-HVGH-PmIleRS2:Ile-AMS […]

IleRS1 = molecular target: IleRS1; design: method as in PMID 6258580, PMID 9822630; conditions: type 1 proteins strongly inhibited; cited from earlier work
SgIleRS2 = conditions: non-canonical motif; cited from earlier work
wt-HVGH PmIleRS2 = conditions: cited from earlier work

For `C/C(=C\C(=O)OCCCCCCCCC(=O)O)C[C@@H]1OC[C@H](C[C@@H]2O[C@H]2[C@@H](C)[C@H](C)O)[C@@H](O)[C@H]1O` [mupirocin], which Ki (wt-HMGH PmIleRS1) is on record?
The Ki was 0.29 ± 0.02 nM.

What about the Ki (ScIleRS2) of the same molecule?
The Ki was 15000 nM.

And the “vo (initial enzyme velocity)” value (W130Q PmIleRS2; c (mupirocin) = 1.0 μM, c (ATP) 5.0 mM, raw data for KI(MUP) towards ATP)?
The value was 0.02357 mM/min and 0.02647 mM/min and 0.02323 mM/min.

What about the “vo (initial enzyme velocity)” value (W130Q PmIleRS2; c (mupirocin) = 1.0 μM, c (ATP) 10.0 mM, raw data for KI(MUP) towards ATP) of the same molecule?
The value was 0.0305 mM/min and 0.03243 mM/min and 0.02895 mM/min.

And the “vo (initial enzyme velocity)” value (W130Q PmIleRS2; c (mupirocin) = 1.0 μM, c (ATP) 15.0 mM, raw data for KI(MUP) towards ATP)?
The value was 0.0343 mM/min and 0.0357 mM/min and 0.0344 mM/min.

And the “vo (initial enzyme velocity)” value (W130Q PmIleRS2; c (mupirocin) = 1.0 μM, c (ATP) 25.0 mM, raw data for KI(MUP) towards ATP)?
The value was 0.03769 mM/min and 0.03939 mM/min and 0.0387 mM/min.

What about the “vo (initial enzyme velocity)” value (W130Q PmIleRS2; c (mupirocin) = 1.0 μM, c (Ile) 10.0 μM, raw data for KI(MUP) towards Ile) of the same molecule?
The value was 0.0192 mM/min.

And the “vo (initial enzyme velocity)” value (W130Q PmIleRS2; c (mupirocin) = 1.0 μM, c (Ile) 20.0 μM, raw data for KI(MUP) towards Ile)?
Its value is 0.02795 mM/min and 0.02585 mM/min and 0.02685 mM/min.

What about the “vo (initial enzyme velocity)” value (W130Q PmIleRS2; c (mupirocin) = 1.0 μM, c (Ile) 40.0 μM, raw data for KI(MUP) towards Ile) of the same molecule?
Its value is 0.03537 mM/min and 0.0321 mM/min and 0.03467 mM/min.

And the “vo (initial enzyme velocity)” value (W130Q PmIleRS2; c (mupirocin) = 1.0 μM, c (Ile) 80.0 μM, raw data for KI(MUP) towards Ile)?
Its value is 0.04151 mM/min and 0.04237 mM/min and 0.04366 mM/min.

What about the “vo (initial enzyme velocity)” value (W130Q PmIleRS2; c (mupirocin) = 1.0 μM, c (Ile) 120.0 μM, raw data for KI(MUP) towards Ile) of the same molecule?
The value was 0.0461 mM/min and 0.04503 mM/min and 0.04686 mM/min.

What about the “vo (initial enzyme velocity)” value (W130Q PmIleRS2; c (mupirocin) = 5.0 μM, c (ATP) 5.0 mM, raw data for KI(MUP) towards ATP) of the same molecule?
Its value is 0.0136 mM/min and 0.01356 mM/min and 0.01125 mM/min.

And the “vo (initial enzyme velocity)” value (W130Q PmIleRS2; c (mupirocin) = 5.0 μM, c (ATP) 10.0 mM, raw data for KI(MUP) towards ATP)?
Its value is 0.021 mM/min and 0.0203 mM/min and 0.0182 mM/min.

And the “vo (initial enzyme velocity)” value (W130Q PmIleRS2; c (mupirocin) = 5.0 μM, c (ATP) 15.0 mM, raw data for KI(MUP) towards ATP)?
The value was 0.02537 mM/min and 0.0244 mM/min and 0.02261 mM/min.

And the “vo (initial enzyme velocity)” value (W130Q PmIleRS2; c (mupirocin) = 5.0 μM, c (ATP) 25.0 mM, raw data for KI(MUP) towards ATP)?
Its value is 0.02943 mM/min and 0.02877 mM/min and 0.02783 mM/min.

And the “vo (initial enzyme velocity)” value (W130Q PmIleRS2; c (mupirocin) = 5.0 μM, c (Ile) 10.0 μM, raw data for KI(MUP) towards Ile)?
The value was 0.00903 mM/min and 0.00774 mM/min and 0.00698 mM/min.

And the “vo (initial enzyme velocity)” value (W130Q PmIleRS2; c (mupirocin) = 5.0 μM, c (Ile) 20.0 μM, raw data for KI(MUP) towards Ile)?
The value was 0.01459 mM/min and 0.01343 mM/min and 0.013 mM/min.

And the “vo (initial enzyme velocity)” value (W130Q PmIleRS2; c (mupirocin) = 5.0 μM, c (Ile) 40.0 μM, raw data for KI(MUP) towards Ile)?
Its value is 0.0221 mM/min and 0.01963 mM/min and 0.02145 mM/min.

What about the “vo (initial enzyme velocity)” value (W130Q PmIleRS2; c (mupirocin) = 5.0 μM, c (Ile) 80.0 μM, raw data for KI(MUP) towards Ile) of the same molecule?
Its value is 0.02978 mM/min and 0.02747 mM/min and 0.02888 mM/min.

What about the “vo (initial enzyme velocity)” value (W130Q PmIleRS2; c (mupirocin) = 5.0 μM, c (Ile) 120.0 μM, raw data for KI(MUP) towards Ile) of the same molecule?
Its value is 0.03377 mM/min.

And the “vo (initial enzyme velocity)” value (W130Q PmIleRS2; c (mupirocin) = 10.0 μM, c (ATP) 5.0 mM, raw data for KI(MUP) towards ATP)?
The value was 0.00715 mM/min and 0.00752 mM/min and 0.00698 mM/min.

And the “vo (initial enzyme velocity)” value (W130Q PmIleRS2; c (mupirocin) = 10.0 μM, c (ATP) 10.0 mM, raw data for KI(MUP) towards ATP)?
Its value is 0.01301 mM/min and 0.0137 mM/min and 0.0124 mM/min.

What about the “vo (initial enzyme velocity)” value (W130Q PmIleRS2; c (mupirocin) = 10.0 μM, c (ATP) 15.0 mM, raw data for KI(MUP) towards ATP) of the same molecule?
The value was 0.0168 mM/min and 0.01667 mM/min and 0.01548 mM/min.

What about the “vo (initial enzyme velocity)” value (W130Q PmIleRS2; c (mupirocin) = 10.0 μM, c (ATP) 25.0 mM, raw data for KI(MUP) towards ATP) of the same molecule?
The value was 0.02198 mM/min and 0.0226 mM/min and 0.02035 mM/min.

And the “vo (initial enzyme velocity)” value (W130Q PmIleRS2; c (mupirocin) = 10.0 μM, c (Ile) 20.0 μM, raw data for KI(MUP) towards Ile)?
Its value is 0.00596 mM/min and 0.0067 mM/min and 0.0071 mM/min.

And the “vo (initial enzyme velocity)” value (W130Q PmIleRS2; c (mupirocin) = 10.0 μM, c (Ile) 40.0 μM, raw data for KI(MUP) towards Ile)?
The value was 0.01336 mM/min and 0.01164 mM/min and 0.01202 mM/min.

And the “vo (initial enzyme velocity)” value (W130Q PmIleRS2; c (mupirocin) = 10.0 μM, c (Ile) 80.0 μM, raw data for KI(MUP) towards Ile)?
The value was 0.02022 mM/min and 0.01917 mM/min and 0.021 mM/min.

What about the “vo (initial enzyme velocity)” value (W130Q PmIleRS2; c (mupirocin) = 10.0 μM, c (Ile) 120.0 μM, raw data for KI(MUP) towards Ile) of the same molecule?
Its value is 0.0257 mM/min and 0.02427 mM/min and 0.02578 mM/min.

What about the “vo (initial enzyme velocity)” value (W130Q PmIleRS2; c (mupirocin) = 25.0 μM, c (ATP) 5.0 mM, raw data for KI(MUP) towards ATP) of the same molecule?
Its value is 0.00415 mM/min and 0.00472 mM/min and 0.00553 mM/min.

What about the “vo (initial enzyme velocity)” value (W130Q PmIleRS2; c (mupirocin) = 25.0 μM, c (ATP) 10.0 mM, raw data for KI(MUP) towards ATP) of the same molecule?
The value was 0.0064 mM/min and 0.00737 mM/min and 0.0088 mM/min.

And the “vo (initial enzyme velocity)” value (W130Q PmIleRS2; c (mupirocin) = 25.0 μM, c (ATP) 15.0 mM, raw data for KI(MUP) towards ATP)?
Its value is 0.01013 mM/min and 0.00993 mM/min and 0.01101 mM/min.

What about the “vo (initial enzyme velocity)” value (W130Q PmIleRS2; c (mupirocin) = 25.0 μM, c (ATP) 25.0 mM, raw data for KI(MUP) towards ATP) of the same molecule?
Its value is 0.01337 mM/min and 0.01219 mM/min and 0.01445 mM/min.

And the “vo (initial enzyme velocity)” value (W130Q PmIleRS2; c (mupirocin) = 25.0 μM, c (Ile) 10.0 μM, raw data for KI(MUP) towards Ile)?
Its value is 0.0021 mM/min and 0.00205 mM/min and 0.00211 mM/min.

And the “vo (initial enzyme velocity)” value (W130Q PmIleRS2; c (mupirocin) = 25.0 μM, c (Ile) 20.0 μM, raw data for KI(MUP) towards Ile)?
The value was 0.00338 mM/min and 0.00346 mM/min.

What about the “vo (initial enzyme velocity)” value (W130Q PmIleRS2; c (mupirocin) = 25.0 μM, c (Ile) 40.0 μM, raw data for KI(MUP) towards Ile) of the same molecule?
The value was 0.00807 mM/min and 0.00657 mM/min and 0.00667 mM/min.

What about the “vo (initial enzyme velocity)” value (W130Q PmIleRS2; c (mupirocin) = 25.0 μM, c (Ile) 80.0 μM, raw data for KI(MUP) towards Ile) of the same molecule?
Its value is 0.012 mM/min and 0.01121 mM/min and 0.01201 mM/min.

What about the “vo (initial enzyme velocity)” value (W130Q PmIleRS2; c (mupirocin) = 25.0 μM, c (Ile) 120.0 μM, raw data for KI(MUP) towards Ile) of the same molecule?
The value was 0.01558 mM/min and 0.01519 mM/min and 0.0161 mM/min.

What about the “Ki for mupirocin compared with wild-type” value (W130Q PmIleRS2; kinetic analysis, Supplementary Fig. 8) of the same molecule?
Its value is “remained the same”.

What about the Ki (IleRS1) of the same molecule?
The Ki was “low nanomolar range”.

And the Ki for mupirocin (SgIleRS2)?
The Ki for mupirocin was “mM range”.

What about the Ki (wt-HVGH PmIleRS2; amino acid activation step, ATP/PPi exchange assay, Ile varied, read-out: KI (MUP)Ile) of the same molecule?
Its Ki is 1080 ± 60 nM.

And the Ki (wt-HVGH PmIleRS2; mupirocin inhibition towards Ile, GraphPad Prism output, Repl1-Repl3, Table 1 footnote b gives this enzyme's values as from ref 21, read-out: KI, single replicates)?
The Ki was 1040 nM and 990 nM and 1180 nM.
